Source: patent publication US20150111933A1, “Deuterated Thiazolidinone Analogues as Agonists for Follicle Stimulating Hormone Receptor” (Merck Patent GmbH, priority 2012, published 2015)

How the values were obtained:
[1] = Intrinsic clearance (Clint) in rat liver microsomes; format: in vitro ADME; settings: 0.5 mg/mL protein, NADPH, up to 30 min, second value of human/rat; for microsomal CLint at 0.8 μM: rat, liver microsomes, pH 7.4, rat liver microsomes; for Clint (rat): rat liver microsomes
Protocol: (§1) Intrinsic Clearance (Clint) Assay Protocol:
(§2) A Tecan Genesis workstation (RSP 150/8) was used for to perform the microsomal incubations. Analysis was carried out using a Waters ACQUITY UPLC system coupled to an ABSciex API3000 mass spectrometer. Data analysis was performed using Assay Explorer (Symyx).
(§3) 0.1 M potassium phosphate buffer pH 7.4 containing 1 mM MgCl2 15 mM NADPH in phosphate buffer 4.4 mg protein/mL liver microsomes in phosphate buffer acetonitrile 20% DMSO in water
(§4) Each experiment consists of 12 test and 2 reference compounds. The reference compounds are incubated as a cocktail. Dilution of test compounds was done in 2 steps from a 10 mM DMSO stock solution. First 4 μL stock solution was added to 196 μL of 20% DMSO in potassium phosphate buffer pH 7.4. In a second step 10 μL of the first dilution were added to […] potassium phosphate buffer and 100 μL internal standard solution to a final concentration of 0.8 μM. 100 μL of the final compound dilution were aliquoted into a 96 deep well plate. 12.5 μL liver microsomes were added to each well (0.5 mg/mL final protein concentration) and the samples preincubated for 5 min at 37° C. and 800 rpm agitation.
(§5) After the preincubation, 250 μL cold acetonitrile were added to the 0 min samples to prevent a reaction. Following this, 12.5 μL NADPH solution were added to all wells to start the incubation, with the exception of the 0 min and 30 min controls without cofactor, where the NADPH was substituted for phosphate buffer.
(§6) The incubations were stopped after 5, 10, 20 and 30 min by adding 250 μL cold acetonitrile to the individual wells.
(§7) The quenched samples were then centrifuged at 4000 g for 1 h at 4° C. 100 μL of the supernatant were transferred into 96 well plates for analysis.
(§8) The metabolic stability of each compound was determined by measurement of the change in LC-MS/MS peak area over time. Assay Explorer software was used to automatically calculate the slope k of the decline. The intrinsic clearance (Clint) of each compound was then calculated according to the formula:
(§9) Clint (μL/min/mg protein)=k1000/protein concentration.

[2] = Intrinsic clearance (Clint) in human liver microsomes; format: in vitro ADME; settings: 0.5 mg/mL protein, NADPH, up to 30 min, first value of human/rat; for microsomal CLint at 0.8 μM: human, liver microsomes, pH 7.4, human liver microsomes; for Clint (human): human liver microsomes
Protocol: as §1, §2, §3, §4, §5, §6, §7, §8, §9

FSHR = target: T1, FSHR (Homo sapiens, UniProt P23945); experiment: EC50 of cyclic AMP production in CHO FSHR cells + EC20 FSH (HTRF); format: cell-based; settings: Cho-FSHR-LUC-1-1-43 cells; for Emax: 1 h, read-out: EC50 of cAMP production (% effect); for Emax / EC50 of cAMP production (% effect): + EC20 FSH, % effect in brackets; for EC50: + EC20 FSH (0.265 pM), 200 μM IBMX, 1 h at 37° C., read-out: EC50 of cAMP production
T1 construct: expressed in transfected cells; host or cells: CHO (Cho-FSHR-LUC-1-1-43)
T1 sequence (P23945 18-695): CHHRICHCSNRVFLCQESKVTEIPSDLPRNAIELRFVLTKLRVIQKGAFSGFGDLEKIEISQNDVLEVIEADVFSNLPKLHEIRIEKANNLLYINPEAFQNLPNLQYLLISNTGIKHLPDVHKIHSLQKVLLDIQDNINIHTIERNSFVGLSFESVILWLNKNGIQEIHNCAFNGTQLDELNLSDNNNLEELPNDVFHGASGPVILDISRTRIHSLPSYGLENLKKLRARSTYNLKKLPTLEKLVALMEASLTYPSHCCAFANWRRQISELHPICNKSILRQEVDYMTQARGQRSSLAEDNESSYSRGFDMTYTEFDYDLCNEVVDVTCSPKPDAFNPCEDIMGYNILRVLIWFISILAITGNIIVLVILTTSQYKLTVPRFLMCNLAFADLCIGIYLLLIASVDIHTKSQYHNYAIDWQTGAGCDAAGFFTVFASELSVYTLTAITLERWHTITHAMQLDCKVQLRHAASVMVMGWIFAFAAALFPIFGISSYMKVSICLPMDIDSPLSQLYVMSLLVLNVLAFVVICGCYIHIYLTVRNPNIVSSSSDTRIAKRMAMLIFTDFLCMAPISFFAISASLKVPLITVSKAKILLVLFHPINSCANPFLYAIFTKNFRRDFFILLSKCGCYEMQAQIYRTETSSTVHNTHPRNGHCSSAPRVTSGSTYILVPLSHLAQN
Protocol: EC50 of Cyclic AMP Production in CHO FSHR Cells+EC20 FSH
2500 Cho-FSHR-LUC-1-1-43 cells were plated per well in 5 μL of phenol red free DMEM/F12+1% FBS. Cells were plated in 384 well, solid white low volume plates (Greiner 784075) by Multidrop. Cells were assayed by adding […] of 2×EC20 FSH/IBMX in DMEM/F12+0.1% BSA) by Multidrop to 2 μL of test compound stamped in 384 well plates (compounds are diluted 1:50). The final FSH concentration was 0.265 pM, and the final IBMX concentration was 200 μM. The compound plate map was as follows: Column 1: 2 μL of DMSO; Column 2: 2 μL of DMSO; Columns 3-12 and 13-24: 2 μL of test compound, diluted 1:4 in 100% DMSO, or 2 μL of FSH, diluted 1:4 in DMEM/F12+0.1% BSA. The starting concentration for FSH was 50 nM (final concentration was 0.5 nM). Furthermore, Column 23 contained 2 μL of EC100 FSH reference (100×) (diluted in DMEM/F12+0.1% BSA) at a final concentration of 0.5 nM, and Column 24 contained 2 μL of 1 mM AS707664/2 reference compound 2. 5 μL of compound+EC20 FSH mixture were transferred to cell plates (1:2 dilution into 5 μL of cell media) The plates were incubated at 37° C. for 1 h. 10 μL of mixed HTRF (CisBio #62AM4PEC) reagents were added per well and incubated at room temperature for 1 h. The plates were read on Envision using the cAMP HTRF—low volume 384 well protocol. The readout was the calculated fluorescence ratio (665 nm/620 nm).

Molecule	microsomal CLint at 0.8 μM [1] [µL/min/mg]	microsomal CLint at 0.8 μM [2] [µL/min/mg]	Emax (FSHR) [%]	EC50 (FSHR) [nM]	Clint (human) [2] [μL/min/mg protein]	Clint (rat) [1] [μL/min/mg protein]	EC50 of cAMP production (% effect) (FSHR; 60 min)	EC50 of cAMP production (% effect) (FSHR)
[2H]c1c([2H])c([2H])c(C#Cc2c([2H])c([2H])c([C@H]3N(c4cccc(C(N)=O)c4)C(=O)[C@@H](CC(=O)NC([2H])([2H])C([2H])([2H])c4ccc(OC([2H])([2H])[2H])c(OC([2H])([2H])[2H])c4)[S@@+]3[O-])c([2H])c2[2H])c([2H])c1[2H] (single isomer, unassigned) [Compound 21]	241	351	103	113				
[2H]C([2H])(NC(=O)C[C@H]1S[C@@H](c2ccc(C#Cc3ccccc3)cc2)N(c2cccc(C(N)=O)c2)C1=O)C([2H])([2H])c1ccc(OC)c(OCC)c1 (single isomer, unassigned) [Compound 4]	51		99	0.7	191			
[2H]C([2H])(NC(=O)C[C@H]1S[C@@H](c2ccc(C#Cc3ccccc3)cc2)N(c2cccc(C(N)=O)c2)C1=O)C([2H])([2H])c1ccc(OC)c(OCC)c1 (single isomer, unassigned) [Compound 14]				2	492	95	(99) %	
3-((2S,5R)-5-(2-((3-ethoxy-4-methoxyphenethyl)amino)-2-oxoethyl)-4-oxo-2-(4-((phenyl-d5)ethynyl)phenyl)thiazolidin-3-yl)benzamide [Compound 8]				1.7	188	54		(99) %
[2H]c1c([2H])c([2H])c(C#Cc2ccc([C@@H]3S[C@H](CC(=O)NC([2H])([2H])C([2H])([2H])c4ccc(OC)c(OCC)c4)C(=O)N3c3cccc(C(N)=O)c3)cc2)c([2H])c1[2H] (single isomer, unassigned) [Compound 9]	31	181	97	0.3				
[2H]C([2H])(NC(=O)C[C@H]1S[C@@H](c2ccc(C#Cc3ccccc3)cc2)N(c2cccc(C(N)=O)c2)C1=O)C([2H])([2H])c1ccc(OC)c(OC)c1 [Compound 2, 3-((2S,5R)-4-oxo-5-(2-oxo-2-((1,1,2,2-d4-2-(3,4-dimethoxyphenyl)ethyl)amino)ethyl)-2-(4-(phenylethynyl)phenyl)thiazolidin-3-yl)benzamide]	24	106	97	1.9				
